Test results from ChEMBL document CHEMBL1201862, “PubChem BioAssay data set” (2004).
The source made the active and inactive calls.

Columns and labels:
[1] = target: Dual specificity tyrosine-phosphorylation-regulated kinase 1A (Rattus norvegicus, UniProt Q63470); assay type: biochemical, Homo sapiens
[2] = target: T1, Caspase-6 (Homo sapiens, UniProt P55212); test: human caspase-6 inhibitors, dose response, biochemical, VEID-R110 fluorescence, cherry-pick (AID 720632)
T1 sequence (P55212 whole entry): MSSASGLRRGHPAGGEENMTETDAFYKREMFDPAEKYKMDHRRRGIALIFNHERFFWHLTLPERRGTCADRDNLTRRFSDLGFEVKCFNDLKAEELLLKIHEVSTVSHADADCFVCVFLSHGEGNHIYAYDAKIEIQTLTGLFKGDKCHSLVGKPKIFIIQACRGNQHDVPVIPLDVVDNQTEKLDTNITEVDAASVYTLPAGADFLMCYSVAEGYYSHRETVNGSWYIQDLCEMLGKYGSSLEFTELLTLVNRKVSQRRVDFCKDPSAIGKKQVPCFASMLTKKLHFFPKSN

[3] = target: T2, DNA repair protein RAD52 homolog (Homo sapiens, UniProt P43351); assay type: functional, biochemical
T2 sequence (P43351 whole entry): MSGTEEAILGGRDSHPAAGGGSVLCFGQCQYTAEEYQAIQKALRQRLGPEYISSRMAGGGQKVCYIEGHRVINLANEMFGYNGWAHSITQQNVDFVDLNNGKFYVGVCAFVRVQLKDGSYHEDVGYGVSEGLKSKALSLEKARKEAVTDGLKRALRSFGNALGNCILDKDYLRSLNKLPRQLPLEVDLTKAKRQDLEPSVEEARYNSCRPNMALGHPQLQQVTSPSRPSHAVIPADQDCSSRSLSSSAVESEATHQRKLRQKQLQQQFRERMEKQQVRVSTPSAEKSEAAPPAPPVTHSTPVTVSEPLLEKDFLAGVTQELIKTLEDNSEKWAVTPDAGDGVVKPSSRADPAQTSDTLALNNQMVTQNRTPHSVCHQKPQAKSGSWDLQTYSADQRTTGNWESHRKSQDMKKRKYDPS

[4] = Shn3 3'UTR reporter inhibitors, dose response, cell-based, Clone20 osteoblasts, firefly luciferase, cherry-picked (AID 624132); assay type: functional;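 further: firefly luciferase luminescence from reporter carrying the Shn3 3'UTR in osteoblasts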
[5] = cytotoxicity in HEK-293T cells, dose response, cytotoxicity control for TCR NF-kB inhibitor project, luminescence, T-cell screen hits (AID 489026); assay type: functional, cell-based;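 further: cells exposed to compound about 14 hours before the viability readout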
[6] = control 3'UTR Renilla luciferase suppression, dose response, counter-screen for Shn3 inhibitor project, cell-based, Clone20-Shn3RL, cherry-picked (AID 624133); assay type: functional
[7] = HepG2 cell cytotoxicity, dose response, cytotoxicity control for Shn3 inhibitor project, CellTiter-Glo, cherry-picked (AID 624134); assay type: functional, cell-based
[8] = inhibitors of HIV Env-driven cell fusion, dose response, cherry-pick (AID 652057); assay type: functional, cell-based
[9] = ZM109 Env clade C HIV-1 fusion inhibitors, dose response, HeLa effector, CEM target cells, luciferase, cherry-pick (AID 652058); assay type: functional, cell-based
[10] = inhibitors of clade B AD8 Env fusion, dose response, cell-based, cherry-pick (AID 652062); assay type: functional;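 further: luciferase signal from cell-cell fusion driven by HIV-1 clade B AD8 Env; potency is for inhibitors of fusion seen as a drop in luminescence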
[11] = off-target signal loss in HeLa-CEM21 co-culture – HeLa F-luc CTL cells, cherry-picked, counter-screen for HIV-1 Env fusion inhibitor project, dose response (AID 652040); assay type: functional, cell-based;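 further: potency for signal decrease marking cytotoxic or nonspecific inhibition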
[12] = test system: INS1; test: beta cell apoptosis inhibitors, cytokine rescue, dose response, luminescence, retest (AID 449756); assay type: functional, cell-based; details: Rattus norvegicus;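 further: cell death triggered by IL-1 beta plus TNF-alpha plus IFN-gamma mixture; protective hits raise ATP signal compared with cytokine alone wells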
[13] = target: T3, Cytochrome P450 1A2 (Homo sapiens, UniProt P05177);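 further: PubChem cytochrome P450 panel assay, CYP1A2 panel member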
T3 sequence (P05177 whole entry): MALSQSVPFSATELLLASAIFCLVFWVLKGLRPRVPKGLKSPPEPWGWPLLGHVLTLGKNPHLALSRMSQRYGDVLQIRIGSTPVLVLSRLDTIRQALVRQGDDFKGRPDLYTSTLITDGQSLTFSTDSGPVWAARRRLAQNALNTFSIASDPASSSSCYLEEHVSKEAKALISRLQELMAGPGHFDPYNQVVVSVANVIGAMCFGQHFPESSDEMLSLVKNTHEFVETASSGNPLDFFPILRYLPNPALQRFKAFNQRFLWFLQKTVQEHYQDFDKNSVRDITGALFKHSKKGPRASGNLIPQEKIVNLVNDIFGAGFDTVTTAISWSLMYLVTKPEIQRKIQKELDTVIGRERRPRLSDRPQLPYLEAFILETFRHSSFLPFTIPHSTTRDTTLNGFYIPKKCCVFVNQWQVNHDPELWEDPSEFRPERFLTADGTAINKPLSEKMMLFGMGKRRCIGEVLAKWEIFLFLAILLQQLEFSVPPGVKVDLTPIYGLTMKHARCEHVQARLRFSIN

[14] = inhibitors of SNCA 5'UTR-driven reporter translation, confirmation, H4 neuroglioma cells, luminescence (AID 1988); assay type: functional, cell-based
[15] = test system: BJ; test: cells; assay type: functional, cell-based; details: Homo sapiens
[16] = test system: BJ; test: cytotoxicity toward BJ-TERT fibroblasts, dose response, cell-based, RAS-independent, luminescence (AID 1933); assay type: functional; details: Homo sapiens
[17] = Luminescence Cell-Based Dose Response HTS to Identify Inhibitors of 5'UTR Stem-Loop Driven Prion Protein mRNA Translation in H4 Neuroglioblastoma Cells. [Related pubchem assays: 1827 (Project Summary), 1813 (Primary HTS)]; assay type: functional
[18] = inhibitors of firefly luciferase expression or activity, dose response, H4 neuroglioma cells, luminescence (AID 1990); assay type: functional, cell-based
[19] = test system: BJ; test: cytotoxicity toward BJ-TERT-LT-ST fibroblasts, dose response, cell-based, RAS-independent, luminescence (AID 1935); assay type: functional; details: Homo sapiens;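 further: BJ fibroblasts immortalized with TERT plus LT and ST oncogenes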
[20] = cytotoxicity toward DRD oncogenic fibroblasts, dose response, cell-based, non-viral oncogenic, luminescence (AID 1934); assay type: functional; details: Homo sapiens
[21] = microbe, parasite or virus in culture; assay type: functional; details: Mycobacterium tuberculosis
[22] = HEp-2 cell cytotoxicity, dose response, cytotoxicity control for RSV inhibitor project, HTS (AID 2410); assay type: functional; details: human respiratory syncytial virus
[23] = target: T4, Long-chain-fatty-acid--AMP ligase FadD28 (Mycobacterium tuberculosis, UniProt P9WQ59); test: Fluorescence polarization aasay to screen for inhibitors that compete for the binding of FadD28 to a bisubstrate Measured in Biochemical System Using Plate Reader - 2147-01_Inhibitor_Dose_CherryPick_Activity.; assay type: functional, Mycobacterium tuberculosis H37Rv
T4 sequence (P9WQ59 whole entry): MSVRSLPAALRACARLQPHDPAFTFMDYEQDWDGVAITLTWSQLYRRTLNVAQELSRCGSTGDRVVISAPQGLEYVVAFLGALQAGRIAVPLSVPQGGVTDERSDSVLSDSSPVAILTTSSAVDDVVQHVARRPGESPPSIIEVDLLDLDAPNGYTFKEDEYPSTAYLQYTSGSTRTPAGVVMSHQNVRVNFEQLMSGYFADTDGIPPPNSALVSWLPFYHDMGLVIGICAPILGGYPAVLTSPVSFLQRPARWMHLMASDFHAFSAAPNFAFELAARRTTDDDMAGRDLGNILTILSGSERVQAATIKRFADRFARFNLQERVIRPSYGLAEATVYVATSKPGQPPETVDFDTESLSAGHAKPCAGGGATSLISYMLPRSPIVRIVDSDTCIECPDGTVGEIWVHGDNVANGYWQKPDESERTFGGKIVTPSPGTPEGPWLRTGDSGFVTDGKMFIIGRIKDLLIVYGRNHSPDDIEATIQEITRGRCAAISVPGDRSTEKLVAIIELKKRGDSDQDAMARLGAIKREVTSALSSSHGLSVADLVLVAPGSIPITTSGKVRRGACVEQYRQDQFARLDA

[24] = target: T5, Carboxy-terminal domain RNA polymerase II polypeptide A small phosphatase 1 (Homo sapiens, UniProt Q9GZU7); test: inhibitors of CTDSP1, concentration-response testing, biochemical assay, absorbance-based, actives from ultra-high-throughput screening (AID 540297); assay type: functional
T5 sequence (Q9GZU7 whole entry): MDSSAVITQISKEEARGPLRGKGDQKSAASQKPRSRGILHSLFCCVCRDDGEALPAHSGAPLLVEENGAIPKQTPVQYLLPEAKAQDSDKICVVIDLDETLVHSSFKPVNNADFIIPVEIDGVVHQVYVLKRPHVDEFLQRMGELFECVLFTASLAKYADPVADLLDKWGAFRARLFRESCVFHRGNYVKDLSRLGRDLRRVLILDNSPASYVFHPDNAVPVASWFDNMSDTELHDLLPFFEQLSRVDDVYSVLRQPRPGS

For `Cc1ccc2[nH]c(/C(C#N)=C\c3cc(O)ccc3[N+](=O)[O-])nc2c1`, which AC50 [1] is on record?
Its AC50 is 1.82 µM (active).

With `O=C(CC(SCCO)c1ccc2c(c1)OCO2)c1ccco1` (configuration not stated) as the compound, how does the AC50 [1] read?
Its AC50 is 0.563 µM (active).

With `CCO/C=C1/C(=O)N(c2ccccc2OC)C(=O)c2ccccc21` as the compound, how does the AC50 [2] read?
The AC50 was 13.9 µM (active).

With `Cc1cc(N2CCN(C)CC2)nc2ccc(NC(S)=NCc3cccs3)cc12` as the compound, how does the AC50 [3] read?
The AC50 was 17 µM (active).

With `COc1ccc(CCNc2cc(N3CCN(C(=O)c4ccccc4F)CC3)ccc2[N+](=O)[O-])cc1OC` as the compound, how does the AC50 [4] read?
Its AC50 is 1.26 µM (active).

And the IC50 [5]?
Its IC50 is > 80 µM (inactive).

What about the AC50 [6] of the same compound?
The AC50 was 0.811 µM (active).

And the AC50 [7]?
Its AC50 is 0.845 µM (active).

For `O=C1/C(=C/c2ccc3c(c2)OCO3)Oc2cc(OCC(=O)N3CC(O)C[C@H]3C(=O)O)ccc21` (some centres not stated), which AC50 [1] is on record?
The AC50 was 3.56 µM (active).

Which AC50 [8] does the source give for `C=C1CCN([C@H](C(=O)OCc2cccc(C)c2)C(C)C)S(=O)(=O)c2ccccc21` here?
Its AC50 is 1.99 µM (active).

And the AC50 [9]?
Its AC50 is 3.64 µM (active).

And the AC50 [10]?
The AC50 was 4.76 µM (active).

What about the AC50 [11] of the same compound?
Its AC50 is 5.21 µM (active).

With `CC(C)Cn1c(N)c(C(=O)CSc2ccc3c(c2)OCCO3)c(=O)n(C)c1=O` as the compound, how does the AC50 [12] read?
Its AC50 is 2.98 µM (active).

What about the AC50 [4] of the same compound?
Its AC50 is 0.674 µM (active).

What about the IC50 [5] of the same compound?
The IC50 was > 80 µM (inactive).

And the AC50 [6]?
Its AC50 is 1.57 µM (active).

And the AC50 [13]?
Its AC50 is 31.6 µM (inconclusive).

What about the AC50 [7] of the same compound?
Its AC50 is 1.74 µM (active).

For `CCN1C(=O)/C(=C\N2CCN(c3ccc(F)cc3)CC2)SC1=S`, which EC50 [14] is on record?
Its EC50 is > 120 µM (not active).

And the EC50 [15]?
The EC50 was > 150 µM (not active).

What about the EC50 [16] of the same compound?
The EC50 was 81.2 µM (active).

And the EC50 [17]?
Its EC50 is > 120 µM (not active).

And the EC50 [18]?
The EC50 was 16.1 µM (active).

What about the EC50 [19] of the same compound?
Its EC50 is > 150 µM (not active).

What about the EC50 [20] of the same compound?
Its EC50 is > 150 µM (not active).

What does the source list for `CCOC(=O)c1[nH]c2ccc(F)cc2c1NC(=O)CN1CCN(C/C=C/c2ccccc2)CC1`?
CC50 [21]: 22.4 µM (active); CC50 [22]: 8.01 µM (active)

Which AC50 [23] does the source give for `Cc1cccc(CSCCNC(=O)c2ccc(N(C)S(=O)(=O)c3ccccc3)cc2)c1` here?
Its AC50 is > 100 µM (inactive).

For `Cc1ccc(NC(=O)Nc2sc(=S)n(C)c2C)cc1`, which AC50 [23] is on record?
The AC50 was > 100 µM (inactive).

For `O=C(O)C1C2C=CC(C2)C1C(=O)Nc1ccccc1Br` (configuration not stated), which IC50 [24] is on record?
The IC50 was 16.7 µM (active).

What about the AC50 [2] of the same compound?
Its AC50 is 6.78 µM (active).
